From PubChem BioAssay (NCI)
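Compound exposure: 48 hours, 5 concentrations, 96-well plates. Definition used: TGI = concentration required for complete inhibition of growth.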

What was measured:
SR leukemia = assay: NCI tumour cell line growth inhibition, 48 h
M14 melanoma = assay: NCI tumour cell line growth inhibition, 48 h

SMILES | TGI (SR leukemia) | TGI (M14 melanoma)
O=C1CSC(C(N=Nc2ccc(Cl)cc2)c2nc3ccccc3[nH]2)=N1 (centres undefined) | > 100 µM | > 100 µM
Cn1c(=O)c2nc(NCCO)cnc2n(C)c1=O | > 100 µM | > 100 µM
